How the values were obtained:
sema4D/CD100 [1] = test: sema4D/CD100 cleavage in activated platelets (immunoblot with Abm30); format: cell-based, human; settings: for cleavage of sema4D/CD100: platelets stimulated with 100 nM PMA at 37° C. for 30 min, 20 μM TAPI-2 preincubated for 60 min (FIG. 4A), EDTA not shown
Source text: (§1) FIG. 4 represents the effect of metalloprotease inhibitors on sema4D expression. […] Sema4D was precipitated and blotted with Abm30. Ig light and heavy chains are indicated.
(§2) The observation that sema4D/CD100 cleavage occurs in washed platelets implies that the protease involved is intrinsic to the platelets and not a plasma protein. Platelets are known to contain a number of metalloproteases, including members of the MMP and ADAM families (Sheu, J. R., et al., Br J Pharmacol, 2004. 143(1): p. 193-201. Sawicki, G., et al., Nature, 1997. 386: p. 616-619. Sawicki, G., et al., Thromb. Haemost., 1998. 80: p. 836-839. Colciaghi, F., et al., Mol Med, 2002. 8(2): p. 67-74.).

sema4D/CD100 [2] = test: sema4D/CD100 surface expression on platelets by FACS; format: cell-based, human; settings: platelets stimulated with PMA for 15 min or 60 min, FACS (FIG. 4B)
Experimental: as §1
Surface expression of sema4D/CD100 was detected by FACS using an antibody that recognizes the extracellular domain. Expression increased when the platelets were activated with PMA for 15 minutes (FIG. 1C). In contrast, the α-granule membrane protein, P-selectin, was detected only on activated platelets.
as §2

human platelets = test: ADP-induced platelet aggregation; format: cell-based
Experimental: FIG. 9A represents human platelets that were stimulated with a low concentration of ADP±soluble a soluble chimera of the extracellular domain of sema4D/CD100 fused to IgGκ Fc. FIG. 9B represents an immunoblot of FcCD100 that was performed under reducing and non-reducing conditions using anti-Fc.
Soluble sema4D/CD100 caused an increase in ADP-induced aggregation (FIG. 9). In this experiment, soluble sema4D/CD100 was added as a fusion protein (referred to as FcSema4D or FcCD100) in which the entire extracellular domain of sema4D/CD100 was fused to an IgG Fc domain. The protein forms a disulfide-linked homodimer capable of activating sema4D/CD100 receptors (Ishida, I., et al., Int Immunol, 2003. 15(8): p. 1027-34). FcCD100 had no effect when added on its own (not shown). […] Therefore, it appears that stimulating a receptor for sema4D/CD100 on platelets potentiates platelet responses to ADP. Additional platelet agonists (especially collagen) are going to be explored using platelet accumulation on collagen under flow as an additional endpoint.

recombinant ADAM17 = target: T1, recombinant ADAM17 (Homo sapiens, UniProt P78536); test: Cleavage of Fc-sema4D by recombinant ADAM17; format: biochemical; settings: recombinant ADAM17 lacking the pro domain (FIG. 11)
T1 construct: incubated with recombinant ADAM17 lacking the pro domain
Experimental: FIG. 11 represents the cleavage of sema4D by ADAM17. Recombinant ADAM17 was incubated with Fc-sema4D in which the extracellular domain of human sema4D was joined via a linker to the N-terminus of IgG1 Fc. Two fragments were detected by amido black protein staining (left), the smaller of which (fragment #1) was also detectable with anti-Fc, as was the intact protein (middle). The N-terminal sequence of fragment #1 was determined.
The cleavage site within platelet sema4D/CD100 was determined by using the C-terminal sema4D/CD100 antibody to immunoprecipitate the 25-30 kDa fragment that includes the transmembrane domain and any remaining extracellular domain. […]
In an effort to determine whether sema4D is a direct substrate for ADAM17, a chimeric protein comprised of the extracellular domain of human sema4D fused to the N-terminus of an IgG Fc domain fragment (Ishida et al. 2003. Int Immunol 15:1027-1034) was incubated with recombinant ADAM17 lacking the pro domain (Milla et al. 1999. J Biol Chem 274:30563-30570). […] It has been determined that in platelets, as in lymphocytes, the extracellular domain of sema4D/CD100 is shed as a disulfide-linked dimer.

sema4D/CD100 [3] = test: Rate of sema4D/CD100 cleavage in stirred, PMA-activated platelets; format: cell-based, human; settings: fibrinogen binding and aggregation inhibited by the peptide (not shown)
Experimental: Washed platelets were stimulated with 100 nM PMA in an aggregometer cuvette at 37° C. with or without stirring. Lysates were precipitated and blotted with antibody Abm30. The extent of platelet aggregation in the stirred samples is indicated below each lane.
To address the issue of whether the rate of sema4D/CD100 cleavage is different when aggregation is allowed to occur than when activation occurs in the absence of aggregation, platelets were activated with or without the stirring needed for platelet aggregates to form. PMA caused a time-dependent loss of intact sema4D/CD100 and the appearance of the C-terminal sema4D/CD100 fragment. The rate of cleavage was accelerated when aggregation was allowed to occur (FIG. 3). Even at its fastest, however, cleavage lagged behind aggregation.
Platelet aggregation study also included the use of washed platelets were stimulated with 100 nM PMA in an aggregometer cuvette at 37° C. with or without stirring. Lysates were precipitated and blotted with antibody Abm30.

Akt = Akt phosphorylation (pAkt473 immunoblot) in human platelets; format: cell-based; settings: immunoblot for pAkt473, absent in resting platelets (FIG. 7)
Experimental: FIG. 7 represents an immunoblot for pAkt473 from human platelets that were stimulated with recombinant sema4D or thrombin.
Activation of the PI 3-kinase pathway was measured using phosphorylation of Akt as a surrogate. Akt phosphorylation normally occurs in platelets activated by collagen and other agonists. Akt phosphorylation was also recently shown to occur in endothelial cells stimulated with soluble sema4D/CD100 (Basile, et al. Mol Cell Biol. […]: 6889, 2005). In endothelial cells responses to sema4D/CD100 appear to be mediated by plexin-B1. In FIG. 7, human platelets were stimulated with a His-tagged protein corresponding to the human sema4D/CD100 exodomain. Platelet lysates were prepared and immunoblotted with an antibody specific for pAkt473. Thrombin was used as a positive control.

monocytes = settings: cited from earlier work

T1 sequence (P78536 215-824): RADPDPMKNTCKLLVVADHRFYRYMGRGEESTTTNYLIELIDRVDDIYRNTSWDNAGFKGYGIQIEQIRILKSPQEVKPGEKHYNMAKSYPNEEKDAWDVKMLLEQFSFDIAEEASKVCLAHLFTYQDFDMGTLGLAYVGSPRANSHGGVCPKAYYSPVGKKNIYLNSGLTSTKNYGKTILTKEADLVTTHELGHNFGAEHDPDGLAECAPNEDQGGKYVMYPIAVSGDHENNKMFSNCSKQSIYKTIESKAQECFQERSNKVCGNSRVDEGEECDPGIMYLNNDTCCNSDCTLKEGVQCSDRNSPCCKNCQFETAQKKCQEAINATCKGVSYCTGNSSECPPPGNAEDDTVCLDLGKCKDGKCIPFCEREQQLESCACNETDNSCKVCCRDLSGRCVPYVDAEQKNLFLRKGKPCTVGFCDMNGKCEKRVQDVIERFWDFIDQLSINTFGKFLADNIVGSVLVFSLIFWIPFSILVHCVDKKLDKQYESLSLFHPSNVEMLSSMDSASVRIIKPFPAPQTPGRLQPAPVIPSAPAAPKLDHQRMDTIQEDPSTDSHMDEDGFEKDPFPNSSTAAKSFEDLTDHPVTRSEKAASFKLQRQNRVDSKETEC

Molecule: O=C(O)CN(CCN(CC(=O)O)CC(=O)O)CC(=O)O [EDTA]
- cleavage of sema4D/CD100 (sema4D/CD100 [1]): inhibited

Molecule: CNC(=O)[C@H](Cc1c[nH]c2ccccc12)NC(=O)[C@@H](CC(=O)NO)CC(C)C [GM6001]
- cleavage of sema4D/CD100 (sema4D/CD100 [1]): inhibited

Molecule: CC(C)C[C@H](CC(=O)NO)C(=O)N[C@H](C(=O)N[C@@H](C)C(=O)NCCN)C(C)(C)C [TAPI-2]
- sema4D/CD100 cleavage (sema4D/CD100 [1]; platelets activated by thrombin or SFLLRN (not shown)): abolished
- cleavage of sema4D/CD100 (sema4D/CD100 [1]): inhibited
- loss of sema4D/CD100 surface expression (sema4D/CD100 [2]): prevented the loss of surface expression

Molecule: FcCD100: fusion protein in which the entire extracellular domain of sema4D/CD100 was fused to an IgG Fc domain; disulfide-linked homodimer
- platelet aggregation in the presence of ADP (human platelets; low concentration of ADP (FIG. 9)): caused an increase in platelet aggregation
- platelet aggregation, added on its own (human platelets; no ADP (not shown)): no effect
- cleavage by recombinant ADAM17 (recombinant ADAM17): Cleavage produced two identifiable fragments

Molecule: RGDS
- rate of sema4D/CD100 cleavage (sema4D/CD100 [3]): the rate of cleavage became more like that seen when the platelets were activated without stirring

Molecule: soluble sema4D/CD100: in FIG. 7 a His-tagged protein corresponding to the human sema4D/CD100 exodomain
- pAkt in platelet lysates (Akt): readily detectable
- half-maximal effects on monocytes (monocytes): 5 to 10 ng/mL
- maximal effects on monocytes (monocytes): 40 to 50 ng/mL

Molecule: thrombin
- pAkt in platelet lysates (Akt): readily detectable
